In US20030144346A1, “Methods and compositions for regulation of 5-alpha reductase activity” (priority 1997, published 2003):
Where two headings read alike, the source gives them in different places.

Columns and labels:
[1] = target: T1, type 1 human 5α-reductase (HRED1) (Homo sapiens, UniProt P18405); assay: Cell free assay of 5α-reductase, microsomes of rat 1A cells expressing type 1 isoenzyme (HRED1); type: biochemical; design: expressed in transfected cells; host or cells: rat 1A cells infected with pMV7 retrovirus; microsomes;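 also: microsomes from rat 1A cells expressing human type 1 5α-reductase, conversion of radiolabeled testosterone to dihydrotestosterone quantified by thin layer chromatography with radioanalytic scanning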
T1 sequence (P18405 1-259): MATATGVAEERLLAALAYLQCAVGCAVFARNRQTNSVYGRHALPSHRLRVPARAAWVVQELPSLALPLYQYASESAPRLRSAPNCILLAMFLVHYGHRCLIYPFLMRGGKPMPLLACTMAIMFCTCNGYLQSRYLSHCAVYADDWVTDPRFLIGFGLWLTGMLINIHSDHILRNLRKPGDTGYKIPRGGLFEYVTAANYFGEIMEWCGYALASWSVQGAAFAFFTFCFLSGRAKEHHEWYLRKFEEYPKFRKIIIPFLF

[2] = target: T2, type 2 human 5α-reductase (HRED2) (Homo sapiens, UniProt P31213); assay: Cell free assay of 5α-reductase, microsomes of rat 1A cells expressing type 2 isoenzyme (HRED2); type: biochemical; design: expressed in transfected cells; host or cells: rat 1A cells infected with pMV7 retrovirus; microsomes;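 also: labeled testosterone and its product dihydrotestosterone measured in microsomal reaction extracts via thin layer chromatography plus radioanalytic scanning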
T2 sequence (P31213 1-254): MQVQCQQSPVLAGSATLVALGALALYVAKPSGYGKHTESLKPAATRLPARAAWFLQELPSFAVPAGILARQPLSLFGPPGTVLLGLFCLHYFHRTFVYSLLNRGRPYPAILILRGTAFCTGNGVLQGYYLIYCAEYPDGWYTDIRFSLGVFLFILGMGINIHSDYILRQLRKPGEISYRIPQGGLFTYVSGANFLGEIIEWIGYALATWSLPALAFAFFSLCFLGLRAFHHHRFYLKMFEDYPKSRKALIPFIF

[3] = target: T1, type 1 human 5α-reductase (HRED1); assay: Whole cell assay of 5α-reductase, type 1 isoenzyme; type: cell-based; design: expressed in transfected cells; host or cells: rat 1A cells infected with pMV7 retrovirus; details: whole cell assay;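 also: intact rat 1A cells engineered to express the human type 1 5α-reductase isozyme serve as the enzyme source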
[4] = cell-free assay, read-out: IC50, type 1 isoenzyme
[5] = cell-free assay, read-out: IC50, type 2 isoenzyme
[6] = 100 uM, cell free assay, Table 1, read-out: HRED1 % Inhibition @ 100 uM
[7] = cell free assay, Table 1 flavanoids, read-out: HRED1 IC50
[8] = 100 uM, cell free assay, Table 1, read-out: HRED2 % Inhibition @ 100 uM
[9] = cell free assay, Table 1 flavanoids, read-out: HRED2 IC50
[10] = cell free assay, Table 2 catechols, read-out: HRED1 IC50
[11] = cell free assay, Table 2 catechols, read-out: HRED2 IC50
[12] = 100 μM, cell free assay, Table 5
[13] = cell free assay, Table 5 epigallocatechin derivatives, read-out: HRED1 IC50
[14] = cell free assay, Table 5 epigallocatechin derivatives, read-out: HRED2 IC50
[15] = 100 uM, cell free assay, Table 2
[16] = 100 μM, cell free assay, Table 4, read-out: HRED1 % Inhibition @ 100 μM
[17] = cell free assay, Table 4 quinones, read-out: HRED1 IC50
[18] = 100 μM, cell free assay, Table 4, read-out: HRED2 % Inhibition @ 100 μM
[19] = cell free assay, Table 4 quinones, read-out: HRED2 IC50
[20] = 100 μM, cell free assay, Table 4

For `COc1cc(/C=C/C(=O)O)ccc1O` [Ferulic Acid], the inhibition at 100 µM ([1]; 100 uM, cell free assay, Table 3, read-out: HRED1 % Inhibition @ 100 uM) was 0%, the IC50 ([1]; cell free assay, Table 3 curcumin and related compounds, read-out: HRED1 IC50) was over 100 µM and the IC50 [1, 4] was over 100 µM. The inhibition at 100 µM ([2]; 100 uM, cell free assay, Table 3, read-out: HRED2 % Inhibition @ 100 uM) was 18%, the IC50 ([2]; cell free assay, Table 3 curcumin and related compounds, read-out: HRED2 IC50) was over 100 µM and the IC50 [2, 5] was over 100 µM.

Compound `O=c1cc(-c2ccccc2)oc2ccccc12` [Flavone] has an inhibition at 100 µM [1, 6] of 20%, an IC50 [1, 7] of over 100 µM and an inhibition at 100 µM [2, 8] of -52%. It also gave an IC50 [2, 9] of over 100 µM.

`COc1cc2ccc(=O)oc2c(O)c1O` [Fraxetin] was tested, and the IC50 [1, 10] was over 100 µM and the IC50 [2, 11] was over 100 µM.

With `O=C(OC1Cc2c(O)cc(O)cc2OC1c1cc(O)c(O)c(O)c1)c1ccccc1` (stereo not drawn) [HZIV 74] the “HRED1 % Inhibition @ 100 μM” value [1, 12] was 85%, the IC50 [1, 13] was 48 µM and the “HRED2 % Inhibition @ 100 μM” value [2, 12] was 24%. For the same compound, the IC50 [2, 14] was over 100 µM.

With `O=C(O)OC1Cc2c(O)cc(O)cc2OC1c1cc(O)c(O)c(O)c1` (stereo not drawn) [HZIV 109] the “HRED1 % Inhibition @ 100 μM” value [1, 12] was 17%, the IC50 [1, 13] was over 100 µM and the “HRED2 % Inhibition @ 100 μM” value [2, 12] was 0%. For the same compound, the IC50 [2, 14] was over 100 µM.

For `O=C(C=Cc1cc(O)c(O)c(O)c1)OC1Cc2c(O)cc(O)cc2OC1c1cc(O)c(O)c(O)c1` (stereo not drawn) [HZIV 134], the “HRED1 % Inhibition @ 100 μM” value [1, 12] was 99%, the IC50 [1, 13] was 20 µM and the “HRED2 % Inhibition @ 100 μM” value [2, 12] was 94%. It also gave an IC50 [2, 14] of 67 µM.

`O=C(NCCc1cc(O)c(O)c(O)c1)c1cc(O)c(O)c(O)c1` [HZIV 275] was tested, and the “HRED1 % Inhibition @ 100 uM” value [1, 15] was 10%, the IC50 [1, 10] was over 100 µM and the “HRED2 % Inhibition @ 100 uM” value [2, 15] was 6%. For the same compound, the IC50 [2, 11] was over 100 µM.

For `Oc1cc2c(cc1O)[C@@H]1c3ccc(O)c(O)c3OC[C@]1(O)C2` [Hematoxylin], the inhibition at 100 µM ([1]; 100 uM, cell free assay, Table 2, read-out: HRED1 % Inhibition @ 100 uM) was 59%, the IC50 [1, 10] was 83 µM and the inhibition at 100 µM ([2]; 100 uM, cell free assay, Table 2, read-out: HRED2 % Inhibition @ 100 uM) was 38%. It also gave an IC50 [2, 11] of over 100 µM.

`NCCc1cc(O)c(O)c(O)c1` [Hydroxydopamine] was tested, and the “HRED2 % Inhibition @ 100 uM” value [2, 15] was 41%.

Work on `CC(C)=CCC1=C(O)C(=O)c2ccccc2C1=O` [Lapachol] yielded an inhibition at 100 µM [1, 16] of 30%, an IC50 [1, 17] of over 100 µM and an inhibition at 100 µM [2, 18] of 9%. The IC50 [2, 19] was over 100 µM.

Compound `O=c1c(O)c(-c2ccc(O)cc2O)oc2cc(O)cc(O)c12` [Morin] has an IC50 [1, 7] of over 100 µM and an IC50 [2, 9] of over 100 µM.

With `CC(Cc1ccc(O)c(O)c1)C(C)Cc1ccc(O)c(O)c1` (stereo not drawn) [Nordihydrogaiaretic Acid, Nordihydroguaiaretic acid] the “inhibitory activity in the whole cell assay, type 1 isoenzyme, in words” value [3] was “active” and the “HRED2 % Inhibition @ 100 uM” value [2, 15] was 80%.

For `O=c1c(O)cccc2cc(O)c(O)c(O)c12` [Purpurogallin], the IC50 [1, 10] was 30 µM and the IC50 [2, 11] was over 100 µM.

Compound `O=c1ccc2c(-c3ccccc3S(=O)(=O)O)c3ccc(O)c(O)c3oc-2c1O` [Pyrogallol Red] has an IC50 [1, 10] of 15 µM and an IC50 [2, 11] of over 100 µM.

For `O=C1c2ccccc2C(=O)c2c(O)ccc(O)c21` [Quinizarin], the inhibition at 100 µM [1, 16] was 26%, the IC50 [1, 17] was over 100 µM and the inhibition at 100 µM [2, 18] was 7%. The IC50 [2, 19] was over 100 µM.

Work on `C[C@@H]1O[C@@H](OC[C@H]2O[C@@H](Oc3c(-c4ccc(O)c(O)c4)oc4cc(O)cc(O)c4c3=O)[C@H](O)[C@@H](O)[C@@H]2O)[C@H](O)[C@H](O)[C@H]1O` [Rutin] yielded an IC50 [1, 7] of over 100 µM, an IC50 [1, 4] of over 100 µM and an IC50 [2, 9] of over 100 µM. For the same compound, the IC50 ([2]; read-out: IC50, type 2 isoenzyme) was over 100 µM.

In the case of `CC(C)(C)c1cc(O)ccc1O` [T-butylhydroxyquinone], the “HRED1 % Inhibition @ 100 μM” value [1, 20] is reported as 19%, the IC50 [1, 17] is reported as over 100 µM and the “HRED2 % Inhibition @ 100 μM” value [2, 20] is reported as 4%. It also gave an IC50 [2, 19] of over 100 µM.

`O=C1c2c(O)cc(O)cc2O[C@H](c2ccc(O)c(O)c2)[C@H]1O` [Taxifolin] gave an inhibition at 100 µM [1, 6] of 5%, an IC50 [1, 7] of over 100 µM and an IC50 [1, 4] of over 100 µM. It also gave an inhibition at 100 µM [2, 8] of 5%, an IC50 [2, 9] of over 100 µM and an IC50 [2, 5] of over 100 µM.
